Measured values as given in PMC10167348, “Structural mechanisms of TRPM7 activation and inhibition” (Nature Communications, 2023).
Read-outs that look alike come from different tables or passages of the source.

Experiments:
Test in all cases: Aequorin-based Ca2+ influx assay, inhibition of TRPM7-mediated Ca2+ influx
Type in all cases: cell-based
TRPM7 WT = biological target: T1, TRPM7 WT (Mus musculus, UniProt Q923J1)
T1 construct: expressed in transfected cells; host or cells: HEK 293T
Experimental: (§1) Measurements of [Ca^2+]i were performed as reported previously with several modifications[2],[52],[54]. HEK 293T cells (mycoplasma test negative, ATCC #CRL3216) were maintained at 37 °C and 5% CO2 in DMEM supplemented with 10% fetal calf serum, 100 µg/ml streptomycin and 100 U/ml penicillin (all from Thermo Fisher Scientific). Cells cultured in six-well plates (~60% confluence) were transfected with 2 µg/dish Trpm7 plasmid DNA and 0.1 µg/dish pG5A plasmid DNA encoding eGFP fused to Aequorea victoria aequorin, using Lipofectamine 2000 (Thermo Fisher Scientific). Twenty-four hours after transfection, the cells were washed with Mg^2+-free HEPES-buffered saline (Mg^2+-free HBS) containing 140 mM NaCl, 6 mM KCl, 0.5 mM CaCl2, 10 mM HEPES (pH 7.4) and 5 mM glucose, and mechanically resuspended in the Mg^2+-free HBS. For reconstitution of aequorin, cell suspensions were incubated with 5 µM coelenterazine (Biaffin GmbH) in the Mg^2+-free HBS for 30 min at room temperature. Cells were washed twice by centrifugation at 600 rpm for 5 min (Heraeus Pico 17 microcentrifuge, Thermo Fisher Scientific), resuspended in the Mg^2+-free HBS and aliquoted into 96-well plates (1 × 10^5 cells per well). Luminescence was detected at room temperature using a FLUOstar OPTIMA microplate reader (BMG LABTECH GmbH). To monitor the NS8593- and VER155008-induced inhibition of TRPM7-mediated Ca^2+ influx, the extracellular concentration of Ca^2+ was increased to 5 mM by injecting the CaCl2-containing Mg^2+-free HBS in the absence or presence of the inhibitors. […] To study activation by naltriben, TRPM7-transfected cells were exposed to Mg^2+-free HBS containing different concentrations of the agonist. The experiments were terminated by lysing cells with 0.1% (v/v) Triton X-100 in the Mg^2+-free HBS to record the total bioluminescence. The bioluminescence rates (counts/s) were analyzed at 1-s intervals and calibrated as [Ca^2+]i values using the following equation:1 p[Ca^2+]i=0.332588(−log(k))+5.5593 where k represents the rate of aequorin consumption, i.e., counts/s divided by the total number of counts.
(§2) To determine the IC50 values for NS8593 and VER155008 (EC50 for naltriben), the data were fitted with the following logistic equation:2 Ec=Emin+Emax+Emin/1+c^h/IC50^h where E(c) is the functional effect at the concentration c of the compound, Emin is the minimal effect, Emax is the maximal effect, IC50 (EC50) is the concentration of the compound that produces the half-maximal effect, and h is the Hill coefficient. Fitting of dose-response curves was performed using GraphPad Prism 8.4.0. Data are presented as the mean ± SEM.

TRPM7-A981V = biological target: T2, TRPM7-A981V (Mus musculus, UniProt Q923J1, A981V)
T2 construct: expressed in transfected cells; host or cells: HEK 293T
T2 sequence (Q923J1 whole entry A981V): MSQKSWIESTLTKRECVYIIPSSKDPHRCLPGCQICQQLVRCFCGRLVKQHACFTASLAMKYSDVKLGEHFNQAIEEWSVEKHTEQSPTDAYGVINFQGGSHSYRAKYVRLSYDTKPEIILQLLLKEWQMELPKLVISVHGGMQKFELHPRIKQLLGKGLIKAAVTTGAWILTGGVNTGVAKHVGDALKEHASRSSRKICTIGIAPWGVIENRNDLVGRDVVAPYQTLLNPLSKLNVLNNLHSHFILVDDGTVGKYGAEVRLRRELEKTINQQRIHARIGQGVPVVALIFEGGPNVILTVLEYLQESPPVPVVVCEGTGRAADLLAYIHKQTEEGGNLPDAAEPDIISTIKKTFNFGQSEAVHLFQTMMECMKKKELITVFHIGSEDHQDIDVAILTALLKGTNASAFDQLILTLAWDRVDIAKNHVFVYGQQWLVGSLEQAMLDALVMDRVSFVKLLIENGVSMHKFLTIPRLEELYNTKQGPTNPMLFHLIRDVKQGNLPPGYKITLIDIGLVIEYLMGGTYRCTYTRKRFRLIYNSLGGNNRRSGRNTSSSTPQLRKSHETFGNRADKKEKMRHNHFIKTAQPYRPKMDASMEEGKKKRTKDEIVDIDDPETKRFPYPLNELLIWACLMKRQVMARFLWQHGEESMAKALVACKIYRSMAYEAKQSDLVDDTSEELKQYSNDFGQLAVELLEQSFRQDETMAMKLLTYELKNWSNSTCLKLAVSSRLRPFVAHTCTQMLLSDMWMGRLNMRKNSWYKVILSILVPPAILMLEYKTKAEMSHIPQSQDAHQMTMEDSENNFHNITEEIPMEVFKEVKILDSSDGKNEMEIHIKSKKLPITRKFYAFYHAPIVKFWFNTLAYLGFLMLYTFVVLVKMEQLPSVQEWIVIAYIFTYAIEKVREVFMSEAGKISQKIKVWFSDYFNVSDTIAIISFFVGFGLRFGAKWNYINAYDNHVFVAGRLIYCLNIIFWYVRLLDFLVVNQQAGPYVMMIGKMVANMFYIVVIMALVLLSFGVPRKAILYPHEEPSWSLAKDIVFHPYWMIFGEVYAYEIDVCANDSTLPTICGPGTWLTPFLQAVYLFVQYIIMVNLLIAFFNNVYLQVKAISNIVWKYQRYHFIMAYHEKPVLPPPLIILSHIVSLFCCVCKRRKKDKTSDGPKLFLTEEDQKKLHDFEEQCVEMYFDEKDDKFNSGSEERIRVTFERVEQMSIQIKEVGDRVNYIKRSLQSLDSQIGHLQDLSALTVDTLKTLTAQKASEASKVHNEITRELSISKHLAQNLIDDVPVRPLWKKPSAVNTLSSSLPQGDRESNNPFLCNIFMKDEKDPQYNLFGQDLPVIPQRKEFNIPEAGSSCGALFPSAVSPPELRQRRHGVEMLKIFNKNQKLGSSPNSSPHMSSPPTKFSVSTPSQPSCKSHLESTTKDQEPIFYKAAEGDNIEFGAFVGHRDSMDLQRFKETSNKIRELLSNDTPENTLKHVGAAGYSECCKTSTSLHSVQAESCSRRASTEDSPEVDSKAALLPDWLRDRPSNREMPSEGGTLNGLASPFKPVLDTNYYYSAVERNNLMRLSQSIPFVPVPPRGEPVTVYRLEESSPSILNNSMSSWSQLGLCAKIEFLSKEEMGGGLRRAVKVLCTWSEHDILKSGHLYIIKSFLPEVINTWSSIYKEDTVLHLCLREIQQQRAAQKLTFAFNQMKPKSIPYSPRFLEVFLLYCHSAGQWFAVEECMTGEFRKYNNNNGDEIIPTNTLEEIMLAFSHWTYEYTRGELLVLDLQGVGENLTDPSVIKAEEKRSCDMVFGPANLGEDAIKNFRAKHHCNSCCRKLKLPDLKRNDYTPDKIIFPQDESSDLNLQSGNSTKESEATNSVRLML
Experimental: as §1, §2

TRPM7-M991A = biological target: T3, TRPM7-M991A (Mus musculus, UniProt Q923J1, M991A)
T3 construct: expressed in transfected cells; host or cells: HEK 293T
T3 sequence (Q923J1 whole entry M991A): as the sequence (Q923J1 whole entry A981V) above, with V981A, M991A counted along it
Experimental: as §1, §2

TRPM7-W1111A = biological target: T4, TRPM7-W1111A (Mus musculus, UniProt Q923J1, W1111A)
T4 construct: expressed in transfected cells; host or cells: HEK 293T
T4 sequence (Q923J1 whole entry W1111A): as the sequence (Q923J1 whole entry A981V) above, with V981A, W1111A counted along it
Experimental: as §1, §2

[1] = [NS8593] 7.0 µM, replicate values, read-out: TRPM7 activity, 100%
[2] = [NS8593] 0.7 µM, replicate values, read-out: TRPM7 activity, 100%

T1 sequence (Q923J1 whole entry): as the sequence (Q923J1 whole entry A981V) above, with V981A counted along it

c1ccc2c(c1)CCC[C@H]2Nc1nc2ccccc2[nH]1 [NS8593]
remaining activity at 7 µM (TRPM7 WT; [1]): 0% | remaining activity at 30 µM (TRPM7 WT; [NS8593] 30.0 µM, replicate values, read-out: TRPM7 activity, 100%): 0% | remaining activity at 50 µM (TRPM7 WT; [NS8593] 50.0 µM, replicate values, read-out: TRPM7 activity, 100%): 0% | Hill coefficient (TRPM7 WT; antagonist, mean ± SEM): –1.73 ± 0.26 | IC50 (TRPM7 WT; antagonist, mean ± SEM): 0.91 ± 0.08 µM | remaining activity at 0.3 µM (TRPM7-A981V; [NS8593] 0.3 µM, replicate values, read-out: TRPM7 activity, 100%): 98.9% | remaining activity at 0.7 µM (TRPM7-A981V; [2]): 97.4% | remaining activity at 7 µM (TRPM7-A981V; [1]): 81.9% | Hill coefficient (TRPM7-A981V; antagonist, mean ± SEM): –1.45 ± 0.50 | IC50 (TRPM7-A981V; antagonist, mean ± SEM, read-out: IC50): 21.9 ± 12.3 µM | remaining activity at 0.7 µM (TRPM7-M991A; M991A in the presence of 10 µM VER155008, [NS8593] 0.7 µM, replicate values, read-out: TRPM7 activity, 100%): 77% | remaining activity at 1 µM (TRPM7-M991A; M991A in the presence of 10 µM VER155008, [NS8593] 1.0 µM, replicate values, read-out: TRPM7 activity, 100%): 61.9% | remaining activity at 3 µM (TRPM7-M991A; M991A in the presence of 10 µM VER155008, [NS8593] 3.0 µM, replicate values, read-out: TRPM7 activity, 100%): 17.1% | remaining activity at 5 µM (TRPM7-M991A; M991A in the presence of 10 µM VER155008, [NS8593] 5.0 µM, replicate values, read-out: TRPM7 activity, 100%): 11.9% | remaining activity at 1 µM (TRPM7-M991A; M991A without VER155008, [NS8593] 1.0 µM, replicate values, read-out: TRPM7 activity, 100%): 28.8% | Hill coefficient (TRPM7-M991A; M991A, antagonist, no added second inhibitor, mean ± SEM): –1.24 ± 0.15 | IC50 (TRPM7-M991A; M991A, antagonist, no added second inhibitor, mean ± SEM, read-out: IC50): 0.59 ± 0.05 µM | Hill coefficient (TRPM7-M991A; M991A, in the presence of 10 µM VER155008, mean ± SEM): –1.43 ± 0.11 | remaining activity at 0.5 µM (TRPM7-W1111A; [NS8593] 0.5 µM, replicate values, read-out: TRPM7 activity, 100%): 103% | remaining activity at 0.7 µM (TRPM7-W1111A; [2]): 103% | remaining activity at 1 µM (TRPM7-W1111A; [NS8593] 1.0 µM, replicate values, read-out: TRPM7 activity, 100%): 98.1% | remaining activity at 3 µM (TRPM7-W1111A; [NS8593] 3.0 µM, replicate values, read-out: TRPM7 activity, 100%): 62.5% | remaining activity at 7 µM (TRPM7-W1111A; [1]): 50.3% | Hill coefficient (TRPM7-W1111A; antagonist, mean ± SEM): –1.54 ± 0.24 | IC50 (TRPM7-W1111A; antagonist, mean ± SEM): 5.14 ± 0.45 µM
